We go through 66 molecules from US10508105B2, “Indazole compounds as mGluR4 allosteric potentiators, compositions, and methods of treating neurological dysfunction” (Vanderbilt University, priority 2017, dated 2019).

The target in this test is human mGlu4 (Homo sapiens (Human), UniProt Q14833). Nature of the test: mGlu4 PAM assay in human mGlu4/Gqi5 cells with ~EC20 glutamate (Hamamatsu FDSS). The format is cell-based. The following applies: ~EC20 concentration of glutamate, read-out: mGlu4 PAM EC50. On the procedure:
The disclosed compounds and compositions can be evaluated for their ability to act as a potentiatior of metabotropic glutamate receptor activity, in particular mGluR4 activity, by any suitable known methodology known in the art. For example, Chinese Hamster Ovary (CHO) cells transfected with human mGluR4 or HEK cells co-transfected with rat mGluR4 and the G-protein regulated Inwardly Rectifying Potassium channel (GIRK) were plated in clear bottom assay plates for assay in a Hamamatsu FDSS Fluorometric Plate Reader. The cells were loaded with either a Ca2+-sensitive fluorescent dye or the thallium responsive dye and the plates were washed and placed into a suitable kinetic plate reader. For human mGluR4 assays, a fluorescence baseline was established for 3-5 seconds, the disclosed compounds were then added to the cells, and the response in cells was measured. Approximately two and a half minutes later, a concentration of mGluR4 orthosteric agonist (e.g. glutamate, L-AP4, or L-SOP) eliciting approximately 20% (EC20) of the maximal agonist response was added to the cells, and the response was measured. Two minutes later, a concentration of mGluR4 agonist (e.g. glutamate, L-AP4, or L-SOP) eliciting 80% (EC80) of the maximal agonist response was added to the cells, and the response was measured. For rat mGluR4/GIRK experiments, a baseline was established for approximately five seconds, disclosed compounds were added, and either an EC20 or EC80 concentration of agonist was added approximately two and one half minutes later.
The above described assay operated in two modes. In the first mode, a range of concentrations of the disclosed compounds are added to cells, followed by a single fixed concentration of agonist. If the compound acts as a potentiatior, an EC50 value for potentiation and a maximum extent of potentiation by the compound at this concentration of agonist is determined by non-linear curve fitting. If the compound acts as an antagonist, an IC50 value is determined by non-linear curve fitting. In the second mode, several fixed concentrations of the disclosed compounds are added to various wells on a plate, followed by a range in concentrations of agonist for each concentration of disclosed compound. The EC50 values for the agonist at each concentration of compound are determined by non-linear curve fitting. A decrease in the EC50 value of the agonist with increasing concentrations of the sample compound (a leftward shift of the agonist concentration-response curve) is an indication of the degree of mGluR4 potentiation at a given concentration of the sample compound. A decrease in the maximal response of the agonist with increasing concentrations of the sample compounds, with or without a rightward shift in agonist potency, is an indication of the degree of antagonism at mGluR4. The second mode also indicates whether the sample compounds also affect the maximum response to mGluR4 to agonists.

Chain of human mGlu4 (Q14833 33-912): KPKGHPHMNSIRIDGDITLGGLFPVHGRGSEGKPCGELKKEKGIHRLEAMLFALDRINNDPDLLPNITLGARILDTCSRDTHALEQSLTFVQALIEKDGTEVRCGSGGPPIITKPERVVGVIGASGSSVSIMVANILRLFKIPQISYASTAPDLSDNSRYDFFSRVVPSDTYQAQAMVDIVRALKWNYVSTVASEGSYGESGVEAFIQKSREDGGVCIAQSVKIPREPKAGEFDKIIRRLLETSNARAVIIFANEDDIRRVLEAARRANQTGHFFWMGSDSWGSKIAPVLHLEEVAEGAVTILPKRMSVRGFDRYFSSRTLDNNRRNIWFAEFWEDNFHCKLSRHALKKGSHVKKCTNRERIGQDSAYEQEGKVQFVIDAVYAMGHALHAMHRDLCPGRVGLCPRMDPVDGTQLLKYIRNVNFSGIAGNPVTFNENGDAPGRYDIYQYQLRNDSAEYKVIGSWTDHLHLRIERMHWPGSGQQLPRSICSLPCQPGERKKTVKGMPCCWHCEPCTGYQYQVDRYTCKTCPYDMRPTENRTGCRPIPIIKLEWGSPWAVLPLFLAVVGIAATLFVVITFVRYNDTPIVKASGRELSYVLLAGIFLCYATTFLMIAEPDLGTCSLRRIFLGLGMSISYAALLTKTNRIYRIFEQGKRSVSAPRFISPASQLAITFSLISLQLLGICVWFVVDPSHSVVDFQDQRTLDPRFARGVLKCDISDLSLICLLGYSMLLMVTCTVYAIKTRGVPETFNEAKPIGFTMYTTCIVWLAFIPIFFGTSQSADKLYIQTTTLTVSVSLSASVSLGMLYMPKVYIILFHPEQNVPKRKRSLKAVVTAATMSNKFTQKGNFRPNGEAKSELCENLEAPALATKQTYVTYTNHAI

The term EC50 denotes the concentration needed to bring the measured effect to its halfway point. As for `Cn1nc(OC2CCOCC2F)c2ccc(Nc3n[nH]c4cccnc34)cc21` (stereo not drawn) [Compound 64], the EC50 came out at 89 nM. With `Cn1nc(OCC(F)(F)F)c2ccc(Nc3n[nH]c4cccnc34)cc21` [Compound 13], the EC50 came out at 175 nM.

Regarding `Cn1nc(OCC2CCOC2)c2ccc(NC(=O)c3cccc(F)n3)cc21` (stereo not drawn) [Compound 95], the EC50 came to 211 nM.

In the case of `Cn1nc(OC[C@@H]2COCCO2)c2ccc(NC(=O)c3ncccc3N)cc21` [Compound 93], the EC50 was 30.5 nM. The result for `Cn1nc(OC2CCOC(C)(C)C2)c2ccc(NC(=O)c3ncccc3N)cc21` (stereo not drawn) [Compound 68] reads 131 nM.

Consider `Cn1nc(OC2CCOCC2)c2ccc(Nc3n[nH]c4cccnc34)cc21` [Compound 20], for which the EC50 stood at 45.4 nM. For `Cn1nc(OC2CCOC(C)(C)C2)c2ccc(NC(=O)c3ccccn3)cc21` (stereo not drawn) [Compound 67] the value was 80.2 nM. For the molecule `Cn1nc(OCC2CCCOC2)c2ccc(NC(=O)c3ccccn3)cc21` (stereo not drawn) [Compound 85], the concentration for a half-maximal effect (EC50) is 170 nM. The result for `Cn1nc(OCC2CCCOC2)c2ccc(NC(=O)c3ncccc3O)cc21` (stereo not drawn) [Compound 87] reads 100 nM; that for `Cn1nc(Oc2cccc(C#N)n2)c2ccc(Nc3n[nH]c4cccnc34)cc21` [Compound 16], 111 nM. The result for `Cn1nc(OCC2CCOC(C)(C)C2)c2ccc(NC(=O)c3ccc(F)cn3)cc21` (stereo not drawn) [Compound 106] reads 277 nM.

As for `Cn1nc(OC[C@@H]2CCOC2)c2ccc(NC(=O)c3ncccc3N)cc21` [Compound 79], the EC50 came to 27.3 nM. The result for `Cn1nc(OCC2COC(C)(C)C2)c2ccc(NC(=O)c3ccccn3)cc21` (stereo not drawn) [Compound 101] reads 75.6 nM; that for `Cn1nc(OCC2CCOCC2)c2ncc(NC(=O)c3ncccc3O)cc21` [Compound 59], 599 nM.

Consider `CC1CC(Oc2nn(C)c3cc(Nc4n[nH]c5cccnc45)ccc23)CCO1` (stereo not drawn) [Compound 65], for which the concentration for a half-maximal effect (EC50) amounted to 134 nM. For `Cn1nc(OC2CCOC(C)(C)C2)c2ccc(NC(=O)c3ncccc3O)cc21` (stereo not drawn) [Compound 69] the value was 117 nM; for `Cn1nc(OCC2CCOC(C)(C)C2)c2ccc(NC(=O)c3ccccn3)cc21` (stereo not drawn) [Compound 104], 58.8 nM; for `Cn1nc(OC2CCOCC2F)c2ccc(NC(=O)c3ncccc3N)cc21` (stereo not drawn) [Compound 71], 125 nM.

Consider `CC1CC(Oc2nn(C)c3cc(NC(=O)c4ccccn4)ccc23)CCO1` (stereo not drawn) [Compound 73], for which the EC50 was 398 nM. The result for `Cn1nc(OCC2CCCOC2)c2ccc(NC(=O)c3ncccc3N)cc21` (stereo not drawn) [Compound 86] reads 182 nM.

`CC1CC(Oc2nn(C)c3cc(NC(=O)c4ncccc4O)ccc23)CCO1` (stereo not drawn) [Compound 75]: the EC50 came to 431 nM. Consider `Cn1nc(OCC2CCOC2)c2ccc(NC(=O)c3nccnc3N)cc21` (stereo not drawn) [Compound 92], for which the EC50 worked out at 115 nM. The result for `Cn1nc(OCC2CCOC2)c2ccc(NC(=O)c3ncc(F)cc3F)cc21` (stereo not drawn) [Compound 100] reads 801 nM; that for `Cn1nc(OCC2CC2(F)F)c2ccc(Nc3n[nH]c4cccnc34)cc21` (stereo not drawn) [Compound 31], 112 nM.

In the case of `Cn1nc(OCC2COCCO2)c2ccc(Nc3n[nH]c4cccnc34)cc21` (stereo not drawn) [Compound 35], the EC50 came to 361 nM. As to `Cn1nc(OCCN2CCOCC2)c2ccc(Nc3n[nH]c4cccnc34)cc21` [Compound 21], the EC50 came to 238 nM. For `Cn1nc(OCCN2CCOCC2)c2ccc(Nc3n[nH]c4ncccc34)cc21` [Compound 66] the value was 398 nM.

On to `Cn1nc(OCC2COCCO2)c2ccc(NC(=O)c3ncccc3N)cc21` (stereo not drawn) [Compound 82], for which the concentration for a half-maximal effect (EC50) is 66.1 nM. For `Cn1nc(OC[C@@H]2COCCO2)c2ccc(NC(=O)c3ncccc3N)cc21` [Compound 130] the value was 24.6 nM. As to `Cn1nc(OCc2ccncc2)c2ccc(Nc3n[nH]c4cccnc34)cc21` [Compound 10], the EC50 was determined as 65.7 nM. For the molecule `Cn1nc(OCC2COCCO2)c2ccc(Nc3n[nH]c4ncccc34)cc21` (stereo not drawn) [Compound 112], the EC50 was 176 nM. The result for `Cn1nc(O[C@H]2CCOC2)c2ccc(Nc3n[nH]c4ncccc34)cc21` [Compound 33] reads 575 nM; that for `CC1CC(COc2nn(C)c3cc(NC(=O)c4ncccc4N)ccc23)CC(C)O1` (stereo not drawn) [Compound 108], 187 nM; that for `Cn1nc(OCC2CCOCC2)c2ccc(NC(=O)c3ncccc3N)cc21` [Compound 117], 87.7 nM.

Consider `Cn1nc(OC2CCS(=O)(=O)CC2)c2ccc(NC(=O)c3ncccc3O)cc21` [Compound 41], for which the EC50 was 403 nM.

As to `CC1CC(Oc2nn(C)c3cc(NC(=O)c4ncccc4N)ccc23)CCO1` (stereo not drawn) [Compound 74], the half-maximal effective concentration (EC50) stood at 431 nM. Take `Cn1nc(OCc2ccccn2)c2ccc(Nc3n[nH]c4cccnc34)cc21` [Compound 17]: the concentration for a half-maximal effect (EC50) was found to be 462 nM. The result for `Cn1nc(OCCN2CCOCC2)c2ccc(NC(=O)c3ncccc3O)cc21` [Compound 78] reads 255 nM; that for `[2H]C([2H])([2H])Oc1nn(C)c2cc(Nc3n[nH]c4cccnc34)ccc12` [Compound 8], 294 nM.

For `Cn1nc(OC2CCOC[C@H]2F)c2ccc(NC(=O)c3ncccc3O)cc21` (stereo partly drawn) [Compound 72], the 50% effective concentration (EC50) was determined as 132 nM. The result for `Cn1nc(OC[C@H]2CCOC2)c2ncc(NC(=O)c3ncccc3N)cc21` [Compound 84] reads 166 nM. Consider `Cn1nc(OC2CC3CCC2O3)c2ccc(Nc3n[nH]c4ncccc34)cc21` (stereo not drawn) [Compound 38], for which the concentration for a half-maximal effect (EC50) came to 601 nM.

For the molecule `COCCOc1nn(C)c2cc(Nc3n[nH]c4cccnc34)ccc12` [Compound 23], the half-maximal effective concentration (EC50) was found to be 380 nM.

On to `Cn1nc(OCC2CCOCC2)c2ncc(NC(=O)c3ccccn3)cc21` [Compound 57], for which the concentration for a half-maximal effect (EC50) worked out at 255 nM. The result for `Cc1ccoc1C(=O)Nc1ccc2c(OCC3CCOC3)nn(C)c2c1` (stereo not drawn) [Compound 96] reads 339 nM.

Turning to `Cn1nc(O[C@H]2CCOC2)c2ccc(Nc3n[nH]c4cccnc34)cc21` [Compound 32], the EC50 was 456 nM. For `CCCOc1nn(C)c2cc(Nc3n[nH]c4cccnc34)ccc12` [Compound 9] the value was 171 nM; for `Cn1nc(OC[C@H]2COCCO2)c2ccc(NC(=O)c3ncccc3N)cc21` [Compound 94], 58.7 nM; for `Cn1nc(OCC2CCOCC2)c2ccc(Nc3n[nH]c4ncccc34)cc21` [Compound 52], 157 nM.

For the molecule `Cn1nc(OCC2COC(C)(C)C2)c2ccc(NC(=O)c3ncccc3N)cc21` (stereo not drawn) [Compound 102], the EC50 was determined as 109 nM. The result for `Cn1nc(Oc2ccc(C#N)cn2)c2c(Cl)cc(Nc3n[nH]c4cccnc34)cc21` [Compound 25] reads 482 nM; that for `Cn1nc(OC2CCS(=O)(=O)C2)c2ccc(NC(=O)c3ccccn3)cc21` (stereo not drawn) [Compound 53], 272 nM. For `Cn1nc(OCCN2CCOCC2)c2c(Cl)cc(Nc3n[nH]c4cccnc34)cc21` [Compound 24] the value was 322 nM; for `Cn1nc(OC2CC3CCC2O3)c2ccc(Nc3n[nH]c4cccnc34)cc21` (stereo not drawn) [Compound 37], 306 nM; for `Cn1nc(OCC2CCOC2)c2ncc(NC(=O)c3ncccc3N)cc21` (stereo not drawn) [Compound 56], 86.8 nM.

`COCCCOc1nn(C)c2cc(Nc3n[nH]c4cccnc34)ccc12` [Compound 30]: the half-maximal effective concentration (EC50) was 172 nM. For `Cn1nc(OCC2CCOC2)c2ncc(NC(=O)c3ccccn3)cc21` (stereo not drawn) [Compound 55] the value was 873 nM. For `Cn1nc(OC2CCS(=O)(=O)CC2)c2ccc(Nc3n[nH]c4ncccc34)cc21` [Compound 48] the value was 335 nM. As for `Cn1nc(OCC2CCCOC2)c2ncc(NC(=O)c3ncccc3N)cc21` (stereo not drawn) [Compound 89], the 50% effective concentration (EC50) worked out at 181 nM.

`Cn1nc(OCC2CCOC2)c2ccc(NC(=O)c3cc(F)ccn3)cc21` (stereo not drawn) [Compound 98]: the half-maximal effective concentration (EC50) amounted to 991 nM. As to `Cn1nc(OCC2CCOC2)c2ccc(NC(=O)c3ncccc3O)cc21` (stereo not drawn) [Compound 44], the EC50 came to 53 nM. In the case of `Cn1nc(OC2CCS(=O)(=O)CC2)c2ccc(Nc3n[nH]c4cccnc34)cc21` [Compound 29], the EC50 was determined as 214 nM. As for `Cn1nc(OCC2CCOCC2)c2ncc(Nc3n[nH]c4ncccc34)cc21` [Compound 62], the EC50 worked out at 353 nM. The result for `Cn1nc(OCC2CCOCC2)c2ccc(NC(=O)c3ncccc3O)cc21` [Compound 118] reads 36.8 nM; that for `Cn1nc(OCC2CCOC2)c2ccc(NC(=O)c3ncccc3N)cc21` (stereo not drawn) [Compound 115], 75.4 nM; that for `Cn1nc(OCC2CCCCO2)c2ccc(Nc3n[nH]c4cccnc34)cc21` (stereo not drawn) [Compound 14], 85.6 nM.
